{"source": "patent US11299760B2", "about": "(Amgen Inc., priority 2013, dated 2022)", "format_in_all_cases": "cell-based, Chinese hamster", "key": {"Cells producing MAb C": {"tested_on": "Cells producing MAb C", "test": "mock perfusion assay, glycan analysis", "description": "(§1) Mock perfusion assay is a small scale, plate-based assay that is designed to mimic perfusion conditions in bioreactors through daily medium exchanges. For a 10-day mock perfusion assay, passaging cultures of various production cell lines were diluted 1:5 into chemically defined base perfusion medium in a 24 deep-well plate at a final volume of 3 ml per well. Mock perfusion was initiated on day 3 when the cells were spun down at 1000 rpm for 5 minutes and 25% of each spent culture medium was exchanged with the equivalent volume of fresh perfusion media. Subsequent medium exchange percentages were 40% on days 4-8 and 50% on day 9. Exchanged supernatants were stored at 4° C. prior to analysis.\n(§2) Analysis of cell culture parameters was also started on day 3; viable cell density and viability were analyzed using the ViaCount Guava assay as previously described. Glucose was measured daily starting on day 3 and was maintained at 12 g/l. Stored supernatants were analyzed for antibody titer as described previously. Samples of supernatant fluid from days 6, 8 and 10 were also analyzed for the presence and type of glycans by HILIC analysis.\nEquivalent volumes of methanol were added daily to control cultures (columns 1 and 2 of the 24-well plate). This scheme is depicted below:\nTotal high mannose values (Total HM column) and the corresponding distributions into high mannose species from Man5 through Man9 were determined for purified antibody samples collected on day 10. Each value shown in Table 4 represents an average of duplicates."}, "[1]": {"tested_on": "recombinant CHO cell line producing an antibody (MAb A)", "test": "six day batch assay, glycan analysis (HILIC)", "design": "Total HM: unit not given here", "settings": "for Man5 / Man6 / Man7 / Man8a / Man8b / Total HM: day 6", "description": "Cells were centrifuged at 1500 rpm for five minutes and seeded at 2×10^6 cells per ml into batch production medium in a 24 deep-well plate at a final volume of 3 ml.\nCell density and viability were measured by Guava easyCyte flow cytometer (Milipore, Billerica, Mass.) with the ViaCount application. Cultures were spun down, supernatants were filtered on 0.4 micron filters, and were analyzed for titer and glycan distribution.\nFor glycan analysis, Peptide-N-Glycosidase F (PNGAse F)—released N-linked glycans from protein A purified antibodies were labeled with 2-aminobenzoic acid (2-AA) and separated by HILIC (hydrophilic interaction liquid chromatography) in-line with a fluorescence detector. The separation was performed using a Waters Acquity UPLC (Waters, Milford, Mass.). In-line mass spectrometry (MS), using an ion trap mass spectrometer (LTQ; Thermo Scientific, Waltham, Mass.) in positive mode, was incorporated to accommodate mass determination of species. Glycans were injected and bound to the column in high organic conditions and were then eluted with an increasing gradient of an aqueous ammonium formate buffer. Fast separation times were achieved using a […] small particle column format (Acquity UPLC BEH Glycan Column, 2.1×100 mm; Waters, Milford, Mass.)."}, "[2]": {"tested_on": "production cell lines (MAb A, MAb B, MAb C, MAb D)", "test": "mock perfusion assay, glycan analysis, all four production cell lines", "description": "as §1, §2\nThe cell lines used included three production cell lines that are known to generate mAbs with low high mannose glycans (MAb A, MAb B and MAb C) and one production cell line that consistently produces product with high levels of high mannose glycans (MAb D). […]"}, "[3]": {"settings": "constant monensin 25 nM, day 10"}, "[4]": {"settings": "increasing monensin (to 100 nM), day 10"}}}
{"smiles": "CC[C@@]1([C@@H]2O[C@@H]([C@H]3O[C@@](O)(CO)[C@H](C)C[C@@H]3C)C[C@@H]2C)CC[C@H]([C@]2(C)CC[C@]3(C[C@H](O)[C@@H](C)[C@@H]([C@@H](C)[C@@H](OC)[C@H](C)C(=O)O)O3)O2)O1", "note": "[monensin]", "values": [{"measurement": "Total HM", "setting": "Cells producing MAb C; constant monensin 25 nM from day 3, Day 6", "result": 49.6, "unit": "%"}, {"measurement": "Total HM", "setting": "Cells producing MAb C; constant monensin 25 nM from day 3, Day 8", "result": 31.1, "unit": "%"}, {"measurement": "Total HM", "setting": "Cells producing MAb C; constant monensin 25 nM from day 3, Day 10", "result": 30.9, "unit": "%"}, {"measurement": "Man6", "setting": "Cells producing MAb C; [3]", "result": 5.3, "unit": "%"}, {"measurement": "Man7", "setting": "Cells producing MAb C; [3]", "result": 3.6, "unit": "%"}, {"measurement": "Man8a", "setting": "Cells producing MAb C; [3]", "result": 0.7, "unit": "%"}, {"measurement": "Man8b", "setting": "Cells producing MAb C; [3]", "result": 1.4, "unit": "%"}, {"measurement": "Man9", "setting": "Cells producing MAb C; [3]", "result": 0.3, "unit": "%"}, {"measurement": "Total HM", "setting": "Cells producing MAb C; increasing monensin (25 nM day 4, 50 nM days 5-6, 100 nM days 7-9), Day 6", "result": 56.6, "unit": "%"}, {"measurement": "Total HM", "setting": "Cells producing MAb C; increasing monensin (25 nM day 4, 50 nM days 5-6, 100 nM days 7-9), Day 8", "result": 67.6, "unit": "%"}, {"measurement": "Total HM", "setting": "Cells producing MAb C; increasing monensin (25 nM day 4, 50 nM days 5-6, 100 nM days 7-9), Day 10", "result": 65.8, "unit": "%"}, {"measurement": "Man5", "setting": "Cells producing MAb C; [4]", "result": 31.6, "unit": "%"}, {"measurement": "Man6", "setting": "Cells producing MAb C; [4]", "result": 13.7, "unit": "%"}, {"measurement": "Man7", "setting": "Cells producing MAb C; [4]", "result": 12.3, "unit": "%"}, {"measurement": "Man8a", "setting": "Cells producing MAb C; [4]", "result": 1.0, "unit": "%"}, {"measurement": "Man8b", "setting": "Cells producing MAb C; [4]", "result": 5.9, "unit": "%"}, {"measurement": "Man9", "setting": "Cells producing MAb C; [4]", "result": 1.3, "unit": "%"}, {"measurement": "Man5", "setting": "[1]; 0.1 nM monensin added day 1", "result": 0.775, "unit": "%"}, {"measurement": "Man6", "setting": "[1]; 0.1 nM monensin added day 1", "result": 0.09, "unit": "%"}, {"measurement": "Man7", "setting": "[1]; 0.1 nM monensin added day 1", "result": 0, "unit": "%"}, {"measurement": "Man8a", "setting": "[1]; 0.1 nM monensin added day 1", "result": 0.31, "unit": "%"}, {"measurement": "Man8b", "setting": "[1]; 0.1 nM monensin added day 1", "result": 0, "unit": "%"}, {"measurement": "Total HM", "setting": "[1]; 0.1 nM monensin added day 1", "result": 0.8}, {"measurement": "Man5", "setting": "[1]; 0.5 nM monensin added day 1", "result": 0.785, "unit": "%"}, {"measurement": "Man6", "setting": "[1]; 0.5 nM monensin added day 1", "result": 0.07, "unit": "%"}, {"measurement": "Man7", "setting": "[1]; 0.5 nM monensin added day 1", "result": 0, "unit": "%"}, {"measurement": "Man8a", "setting": "[1]; 0.5 nM monensin added day 1", "result": 0.3, "unit": "%"}, {"measurement": "Man8b", "setting": "[1]; 0.5 nM monensin added day 1", "result": 0, "unit": "%"}, {"measurement": "Total HM", "setting": "[1]; 0.5 nM monensin added day 1", "result": 0.85}, {"measurement": "Man5", "setting": "[1]; 1 nM monensin added day 1", "result": 0.89, "unit": "%"}, {"measurement": "Man6", "setting": "[1]; 1 nM monensin added day 1", "result": 0.13, "unit": "%"}, {"measurement": "Man7", "setting": "[1]; 1 nM monensin added day 1", "result": 0.04, "unit": "%"}, {"measurement": "Man8a", "setting": "[1]; 1 nM monensin added day 1", "result": 0.29, "unit": "%"}, {"measurement": "Man8b", "setting": "[1]; 1 nM monensin added day 1", "result": 0, "unit": "%"}, {"measurement": "Total HM", "setting": "[1]; 1 nM monensin added day 1", "result": 1.05}, {"measurement": "Man5", "setting": "[1]; 5 nM monensin added day 1", "result": 1.12, "unit": "%"}, {"measurement": "Man6", "setting": "[1]; 5 nM monensin added day 1", "result": 0.18, "unit": "%"}, {"measurement": "Man7", "setting": "[1]; 5 nM monensin added day 1", "result": 0.27, "unit": "%"}, {"measurement": "Man8a", "setting": "[1]; 5 nM monensin added day 1", "result": 0.37, "unit": "%"}, {"measurement": "Man8b", "setting": "[1]; 5 nM monensin added day 1", "result": 0, "unit": "%"}, {"measurement": "Total HM", "setting": "[1]; 5 nM monensin added day 1", "result": 1.35}, {"measurement": "Man5", "setting": "[1]; 10 nM monensin added day 1", "result": 1.485, "unit": "%"}, {"measurement": "Man6", "setting": "[1]; 10 nM monensin added day 1", "result": 0.16, "unit": "%"}, {"measurement": "Man7", "setting": "[1]; 10 nM monensin added day 1", "result": 0, "unit": "%"}, {"measurement": "Man8a", "setting": "[1]; 10 nM monensin added day 1", "result": 0.315, "unit": "%"}, {"measurement": "Man8b", "setting": "[1]; 10 nM monensin added day 1", "result": 0, "unit": "%"}, {"measurement": "Total HM", "setting": "[1]; 10 nM monensin added day 1", "result": 1.6}, {"measurement": "increase of total high mannose glycans on the recombinant antibody", "setting": "[1]; 25 nM bolus on day 0 or 200 nM or 100 nM bolus on day 3", "result": "6 to 30", "unit": "fold"}, {"measurement": "Man5", "setting": "[1]; 25 nM monensin added day 1", "result": 6.43, "unit": "%"}, {"measurement": "Man6", "setting": "[1]; 25 nM monensin added day 1", "result": 0.59, "unit": "%"}, {"measurement": "Man7", "setting": "[1]; 25 nM monensin added day 1", "result": 0.59, "unit": "%"}, {"measurement": "Man8a", "setting": "[1]; 25 nM monensin added day 1", "result": 0.39, "unit": "%"}, {"measurement": "Man8b", "setting": "[1]; 25 nM monensin added day 1", "result": 0.115, "unit": "%"}, {"measurement": "Total HM", "setting": "[1]; 25 nM monensin added day 1", "result": 7.65}, {"measurement": "effect on high mannose and on cell growth, viability and titer", "setting": "[1]; 50 nM incubated for six days and 500 nM incubated for three days", "result": "large increases in high mannose at the expense of cell growth, viability and titer"}, {"measurement": "Man5", "setting": "[1]; 50 nM monensin added day 1", "result": 15.725, "unit": "%"}, {"measurement": "Man6", "setting": "[1]; 50 nM monensin added day 1", "result": 4.64, "unit": "%"}, {"measurement": "Man7", "setting": "[1]; 50 nM monensin added day 1", "result": 4.73, "unit": "%"}, {"measurement": "Man8a", "setting": "[1]; 50 nM monensin added day 1", "result": 0.8, "unit": "%"}, {"measurement": "Man8b", "setting": "[1]; 50 nM monensin added day 1", "result": 2.02, "unit": "%"}, {"measurement": "Total HM", "setting": "[1]; 50 nM monensin added day 1", "result": 25.1}, {"measurement": "Man5", "setting": "[1]; 100 nM monensin added day 3", "result": 19.365, "unit": "%"}, {"measurement": "Man6", "setting": "[1]; 100 nM monensin added day 3", "result": 7.475, "unit": "%"}, {"measurement": "Man7", "setting": "[1]; 100 nM monensin added day 3", "result": 6.795, "unit": "%"}, {"measurement": "Man8a", "setting": "[1]; 100 nM monensin added day 3", "result": 0.8, "unit": "%"}, {"measurement": "Man8b", "setting": "[1]; 100 nM monensin added day 3", "result": 2.635, "unit": "%"}, {"measurement": "Total HM", "setting": "[1]; 100 nM monensin added day 3", "result": 33.65}, {"measurement": "Man5", "setting": "[1]; 200 nM monensin added day 3", "result": 18.585, "unit": "%"}, {"measurement": "Man6", "setting": "[1]; 200 nM monensin added day 3", "result": 4.975, "unit": "%"}, {"measurement": "Man7", "setting": "[1]; 200 nM monensin added day 3", "result": 3.795, "unit": "%"}, {"measurement": "Man8a", "setting": "[1]; 200 nM monensin added day 3", "result": 0.61, "unit": "%"}, {"measurement": "Man8b", "setting": "[1]; 200 nM monensin added day 3", "result": 1.17, "unit": "%"}, {"measurement": "Total HM", "setting": "[1]; 200 nM monensin added day 3", "result": 27.35}, {"measurement": "Man5", "setting": "[1]; 500 nM monensin added day 3", "result": 11.735, "unit": "%"}, {"measurement": "Man6", "setting": "[1]; 500 nM monensin added day 3", "result": 1.545, "unit": "%"}, {"measurement": "Man7", "setting": "[1]; 500 nM monensin added day 3", "result": 1.045, "unit": "%"}, {"measurement": "Man8a", "setting": "[1]; 500 nM monensin added day 3", "result": 0.355, "unit": "%"}, {"measurement": "Man8b", "setting": "[1]; 500 nM monensin added day 3", "result": 0.2, "unit": "%"}, {"measurement": "Total HM", "setting": "[1]; 500 nM monensin added day 3", "result": 14.3}, {"measurement": "impact on high mannose or cell culture parameters", "setting": "[1]; monensin concentrations between 0.1 to 10 nM", "result": "no impacts on high mannose or cell culture parameters"}, {"measurement": "effect on high mannose glycans", "setting": "[2]; all four antibody products, mock perfusion", "result": "increased high mannose glycans on all four antibody products tested in a dose dependent manner"}, {"measurement": "increase of high mannose levels compared to the control samples", "setting": "[2]; antibodies collected on day 10, depending on the monensin dose", "result": "1.5 to 15", "unit": "fold"}]}
